Here are results for one molecule from paper PMC9629815, “MK256 is a novel CDK8 inhibitor with potent antitumor activity in AML through downregulation of the STAT pathway” (Oncotarget, 2022).

The subject of series [1] is CD34+/CD38- AML TEX cells. The experiment in a line: Flow cytometry of differentiation/maturation markers. The series is classed as cell-based, human. The method, then:
[…] novel human leukemic cell line (TEX) cells were plated on 100 mm culture dishes at 5 × 10^5 per well, starved with medium containing IMDM supplemented with 1.5%FCS, 2 ng/ml SCF, and 0.2 ng/ml IL-3 (Amgen, Thousand Oaks, CA, USA) overnight. […] Media with tested drugs was replaced on the third day. Following the 6-day treatments, cultures were washed once in Sort buffer (PBS + 2% FBS + 2 mM EDTA), and resuspended to a final concentration of 50 million cells/mL into a 96-well V-shaped plate. Cells were subsequently incubated with Zombie Aqua Fixable Viability Dye (Thermo), washed with Sort buffer, and incubated with Human FcX (BioLegend) to prevent non-specific antibody binding. Following FcX incubation, cells were washed with Sort buffer and incubated with cell surface antibody mix diluted in the BV stain buffer (BD Biosciences) following manufacturer instructions for 30 mins on ice in the dark. Cells were then washed with 100 mL Sort buffer and permeabilized in fresh Fix/Perm solution (Foxp3 Transcription Factor Staining Buffer from eBioscience) following the manufacturer’s instructions. Cell were subsequently incubated in intracellular stain mix in Perm Buffer (1 mL 10× Perm Buffer (eBiosceince) + 8.8 mL dH2O + 2% FCS) for 30 mins on ice in dark. Isotype controls were stained with mouse IgG conjugated to FITC, PE, PerCP-Cy5.5, PE-Cy7, APC, and Alexa Fluor™ 700. Antibodies used to stain cells were FITC-conjugated anti-CD93, PE-conjugated anti-CD96, PerCP-Cy5.5-conjugated anti-CD38, PE-Cy7-conjugated anti CD-34, APC-conjugated anti-CD117, and Alexa Fluor™ 700-conjugated LIVE/DEAD (Invitrogen). Stained samples were resuspended in Perm Buffer and run on a FACSAriaII Flow Cytometer (BD Biosciences). Data were analyzed in FACSDiva (BD Biosciences) and FlowJo (Treestar). To determine the absolute numbers of cells in samples analyzed by FACS, AccuCount beads (Spherotech) were added to stained samples prior to each FACS run per manufacturer’s instructions, and absolute cell counts were calculated based on the known number of beads added. In order to cellularly differentiate apoptosis in AML cells, MOLM14, as a result of synergetic treatments of MK256 combined with ABT199, we used Dead Cell Apoptosis Kits with Annexin V (Invitrogen). MOLM14 cells were plated on a 96-well V-shaped plate at 5x10^5 per well, starved with medium containing 99% RPMI 1640, 1% FBS, and 1X Antibiotic-Antimycotic (Invitrogen). MK256 were added to final concentrations of 13.7 nM, 41.2 nM, 123.5 nM, 370.4 nM, […] on each column, while ABT199 was at final concentrations of 0.2 nM, 0.5 nM, 4.1 nM, 12.3 nM, 37.0 nM on each row. Following 72-hr retreatment, cultures were washed once in Sort buffer (PBS + 2% FBS + 2 mM EDTA) and resuspended to a final concentration of 10^4 cells/well into a 96-well V-shaped plate. Cells were subsequently incubated with Alex Fluor™ 488 annexin V and PI for Flow Cytometry following manufacturer’s instructions.
A general note: Flow cytometry measures light scatter and fluorescence of single cells or particles in a stream.

A short description of series [2]: Hepatocyte stability assay. The series is classed as in vitro ADME, Mouse. The method, then:
Human LiverPoolTM 20-donor, dog and mouse cryopreserved hepatocytes were obtained from BioreclamationIVT. Cryopreserved hepatocytes were removed from the liquid nitrogen tank and thawed in a 37°C water bath. As soon as the cells pulled away from the vial wall, they were decanted into 48 ml of warm HT medium. Cells were centrifuged for four minutes at 420 rpm (50 g). After the supernatant was removed, the pellet was re-suspended in warm DMEM medium. Cell density was counted by a hemacytometer. The assay was carried out in 96-well microtiter plates. MK256 was incubated for 0, 60, 120, and 180 minutes at 37°C with hepatocytes. Reaction mixtures (50 μL) contained a final concentration of 1 μM MK256, 0.5 million cells/mL hepatocytes in the DMEM medium. At each time point (for example, 0, 1, 2, and 3 hrs), 200 μL of quench solution (100% acetonitrile with 0.1% formic acid) with internal standard were transferred to each well. […] All samples were analyzed on LC/MS/MS using an AB Sciex API 4000 instrument, coupled to a Shimadzu LC-20AD LC Pump system. […] The extent of metabolism was calculated as the disappearance of the test compound, compared to the 0-min control reaction incubations. Initial rates were calculated for the compound concentration and used to determine t1/2 values and subsequently, the intrinsic clearance, CLint = (0.693)(1/t1/2 (min))(mL incubation/million cells).

For a further series, the target named is CDK2/cyclin E1 (Homo sapiens, UniProt P24941). The experiment in a line: CDK panel kinase inhibition. The series is classed as biochemical. The settings on record: read-out: Percentage of inhibition (%). An excerpt: (§1) MK256 was synthesized in house. The kinase profiling of MK256 against various targets was done using the SelectScreen Kinase Profiling Services provided by ThermoFisher Scientific (Walham WA, USA). https://www.thermofisher.com/us/en/home/products-and-services/services/custom-services/screening-and-profiling-services/selectscreen-profiling-service/selectscreen-kinase-profiling-service.html.

The next series deals with CDK5/p35 (Homo sapiens, UniProt Q00535). The experiment in a line: CDK panel kinase inhibition. The series is classed as biochemical. The note with it: read-out: Percentage of inhibition (%).
Source text: as §1

Another series concerns the target CDK3/cyclin E1 (Homo sapiens, UniProt Q00526). Description: CDK panel kinase inhibition. In kind it is biochemical. The note with it: read-out: Percentage of inhibition (%).
Source text: as §1

The next series has as its target CDK2/cyclin A (Homo sapiens, UniProt P24941). Description: CDK panel kinase inhibition. The series is classed as biochemical. The note with it: read-out: Percentage of inhibition (%).
Source text: as §1

A further series addresses CDK13/cyclin K (Homo sapiens, UniProt Q14004). Description: CDK panel kinase inhibition. In kind it is biochemical. The note with it: read-out: Percentage of inhibition (%).
Source text: as §1

The target of the next series is CDK17/cyclin Y (Homo sapiens, UniProt Q00537). Description: CDK panel kinase inhibition. In kind it is biochemical. The settings on record: read-out: Percentage of inhibition (%).
Source text: as §1

CDK13/cyclin K, sequence (Q14004 whole entry): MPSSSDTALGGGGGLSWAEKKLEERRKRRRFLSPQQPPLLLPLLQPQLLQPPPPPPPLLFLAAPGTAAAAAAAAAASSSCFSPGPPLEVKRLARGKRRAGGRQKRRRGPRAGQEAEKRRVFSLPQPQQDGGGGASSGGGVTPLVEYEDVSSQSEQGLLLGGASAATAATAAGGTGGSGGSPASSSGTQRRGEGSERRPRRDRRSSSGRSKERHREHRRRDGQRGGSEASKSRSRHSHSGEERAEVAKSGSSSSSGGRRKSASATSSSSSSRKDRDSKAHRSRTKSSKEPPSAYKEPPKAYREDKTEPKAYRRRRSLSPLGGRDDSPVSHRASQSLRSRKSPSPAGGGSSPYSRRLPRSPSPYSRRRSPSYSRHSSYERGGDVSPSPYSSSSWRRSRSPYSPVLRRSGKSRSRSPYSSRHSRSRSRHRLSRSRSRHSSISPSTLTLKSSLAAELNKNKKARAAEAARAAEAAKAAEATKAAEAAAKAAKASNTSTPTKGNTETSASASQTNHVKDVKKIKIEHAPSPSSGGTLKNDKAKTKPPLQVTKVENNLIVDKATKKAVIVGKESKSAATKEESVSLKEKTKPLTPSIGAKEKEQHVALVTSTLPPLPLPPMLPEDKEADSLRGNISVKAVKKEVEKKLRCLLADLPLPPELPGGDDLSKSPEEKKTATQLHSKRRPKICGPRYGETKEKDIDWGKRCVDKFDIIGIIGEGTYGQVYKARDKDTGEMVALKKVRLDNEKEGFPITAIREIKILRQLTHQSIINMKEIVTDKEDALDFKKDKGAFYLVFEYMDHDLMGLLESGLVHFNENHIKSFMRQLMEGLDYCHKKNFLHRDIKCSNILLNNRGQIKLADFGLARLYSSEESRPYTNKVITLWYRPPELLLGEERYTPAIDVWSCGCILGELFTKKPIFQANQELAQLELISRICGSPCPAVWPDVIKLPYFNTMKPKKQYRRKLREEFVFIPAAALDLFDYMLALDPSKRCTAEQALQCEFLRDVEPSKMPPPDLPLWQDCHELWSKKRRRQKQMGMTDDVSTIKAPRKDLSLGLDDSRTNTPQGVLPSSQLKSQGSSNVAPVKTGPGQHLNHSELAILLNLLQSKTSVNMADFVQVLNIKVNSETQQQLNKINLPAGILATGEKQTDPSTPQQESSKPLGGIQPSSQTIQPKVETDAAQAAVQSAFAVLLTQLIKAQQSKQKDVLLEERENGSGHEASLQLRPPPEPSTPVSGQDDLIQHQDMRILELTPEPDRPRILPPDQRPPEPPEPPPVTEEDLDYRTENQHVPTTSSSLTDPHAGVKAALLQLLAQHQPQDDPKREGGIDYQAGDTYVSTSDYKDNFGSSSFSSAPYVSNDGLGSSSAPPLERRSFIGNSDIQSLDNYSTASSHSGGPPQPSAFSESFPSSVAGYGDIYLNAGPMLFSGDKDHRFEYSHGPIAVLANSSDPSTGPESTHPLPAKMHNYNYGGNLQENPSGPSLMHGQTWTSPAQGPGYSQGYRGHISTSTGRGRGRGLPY
CDK13/cyclin K, sequence (O75909 whole entry partner): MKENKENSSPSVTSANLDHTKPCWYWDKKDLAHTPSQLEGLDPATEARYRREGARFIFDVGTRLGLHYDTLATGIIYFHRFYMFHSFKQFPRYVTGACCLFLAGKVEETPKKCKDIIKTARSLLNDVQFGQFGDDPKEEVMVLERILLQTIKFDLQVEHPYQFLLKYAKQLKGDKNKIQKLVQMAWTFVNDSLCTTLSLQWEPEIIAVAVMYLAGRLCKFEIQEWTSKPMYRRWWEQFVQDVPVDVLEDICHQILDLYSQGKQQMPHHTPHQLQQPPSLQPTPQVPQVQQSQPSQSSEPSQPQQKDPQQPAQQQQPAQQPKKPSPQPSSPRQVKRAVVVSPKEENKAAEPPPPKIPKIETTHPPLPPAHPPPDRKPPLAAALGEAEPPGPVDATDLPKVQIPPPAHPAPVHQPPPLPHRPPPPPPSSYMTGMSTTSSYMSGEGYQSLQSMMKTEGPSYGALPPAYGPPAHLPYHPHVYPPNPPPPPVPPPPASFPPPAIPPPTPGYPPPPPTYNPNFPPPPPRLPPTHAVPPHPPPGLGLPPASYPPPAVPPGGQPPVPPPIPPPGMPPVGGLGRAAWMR
CDK17/cyclin Y, sequence (Q00537 whole entry): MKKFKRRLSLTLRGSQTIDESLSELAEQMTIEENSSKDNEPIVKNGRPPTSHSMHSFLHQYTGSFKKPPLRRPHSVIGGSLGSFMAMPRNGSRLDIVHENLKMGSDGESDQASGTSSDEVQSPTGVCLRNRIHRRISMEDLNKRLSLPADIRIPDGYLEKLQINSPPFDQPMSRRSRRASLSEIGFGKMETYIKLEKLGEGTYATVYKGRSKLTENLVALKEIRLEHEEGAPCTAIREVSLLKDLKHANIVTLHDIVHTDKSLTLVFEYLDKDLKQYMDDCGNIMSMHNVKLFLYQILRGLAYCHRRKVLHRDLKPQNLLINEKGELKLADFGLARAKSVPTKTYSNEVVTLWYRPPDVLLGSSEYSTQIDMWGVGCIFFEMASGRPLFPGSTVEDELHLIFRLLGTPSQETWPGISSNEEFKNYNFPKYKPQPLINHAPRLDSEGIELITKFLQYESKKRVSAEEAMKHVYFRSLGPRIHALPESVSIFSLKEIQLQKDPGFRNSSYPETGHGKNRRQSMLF
CDK17/cyclin Y, sequence (Q8ND76 whole entry partner): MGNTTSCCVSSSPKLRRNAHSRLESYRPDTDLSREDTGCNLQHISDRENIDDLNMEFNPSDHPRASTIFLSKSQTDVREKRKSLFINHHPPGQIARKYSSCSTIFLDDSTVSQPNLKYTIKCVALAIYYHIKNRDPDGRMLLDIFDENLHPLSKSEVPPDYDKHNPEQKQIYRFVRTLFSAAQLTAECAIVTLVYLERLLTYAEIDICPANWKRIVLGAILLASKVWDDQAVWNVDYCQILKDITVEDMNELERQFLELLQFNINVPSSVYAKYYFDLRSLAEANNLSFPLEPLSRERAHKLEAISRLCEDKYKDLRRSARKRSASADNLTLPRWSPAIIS
CDK5/p35, sequence (Q00535 whole entry): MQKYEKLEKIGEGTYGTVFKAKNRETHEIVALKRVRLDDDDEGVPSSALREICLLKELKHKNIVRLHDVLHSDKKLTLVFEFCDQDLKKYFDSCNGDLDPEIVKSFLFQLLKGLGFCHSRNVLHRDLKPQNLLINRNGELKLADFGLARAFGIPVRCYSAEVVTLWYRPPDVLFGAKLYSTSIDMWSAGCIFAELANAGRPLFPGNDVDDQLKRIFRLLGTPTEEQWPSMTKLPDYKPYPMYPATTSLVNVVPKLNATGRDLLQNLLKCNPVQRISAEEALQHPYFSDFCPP
CDK5/p35, sequence (Q15078 2-307 partner limits assumed): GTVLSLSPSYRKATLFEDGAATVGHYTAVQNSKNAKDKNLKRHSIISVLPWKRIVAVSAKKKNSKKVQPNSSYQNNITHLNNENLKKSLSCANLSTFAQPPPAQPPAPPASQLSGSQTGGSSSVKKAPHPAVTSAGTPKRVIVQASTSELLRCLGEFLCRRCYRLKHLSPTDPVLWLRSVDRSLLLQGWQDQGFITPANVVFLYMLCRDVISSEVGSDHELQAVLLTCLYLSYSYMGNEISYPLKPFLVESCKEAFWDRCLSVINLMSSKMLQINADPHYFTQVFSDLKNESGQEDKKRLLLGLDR
CDK3/cyclin E1, sequence (Q00526 whole entry): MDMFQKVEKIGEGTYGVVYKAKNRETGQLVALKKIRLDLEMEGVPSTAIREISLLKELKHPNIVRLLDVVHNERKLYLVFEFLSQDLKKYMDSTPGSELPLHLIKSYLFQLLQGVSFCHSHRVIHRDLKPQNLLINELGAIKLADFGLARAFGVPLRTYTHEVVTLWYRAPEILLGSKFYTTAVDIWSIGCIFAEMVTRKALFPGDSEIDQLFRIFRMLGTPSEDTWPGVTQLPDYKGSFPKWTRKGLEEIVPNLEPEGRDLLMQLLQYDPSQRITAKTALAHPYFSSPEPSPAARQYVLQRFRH
CDK3/cyclin E1, sequence (P24864 whole entry partner): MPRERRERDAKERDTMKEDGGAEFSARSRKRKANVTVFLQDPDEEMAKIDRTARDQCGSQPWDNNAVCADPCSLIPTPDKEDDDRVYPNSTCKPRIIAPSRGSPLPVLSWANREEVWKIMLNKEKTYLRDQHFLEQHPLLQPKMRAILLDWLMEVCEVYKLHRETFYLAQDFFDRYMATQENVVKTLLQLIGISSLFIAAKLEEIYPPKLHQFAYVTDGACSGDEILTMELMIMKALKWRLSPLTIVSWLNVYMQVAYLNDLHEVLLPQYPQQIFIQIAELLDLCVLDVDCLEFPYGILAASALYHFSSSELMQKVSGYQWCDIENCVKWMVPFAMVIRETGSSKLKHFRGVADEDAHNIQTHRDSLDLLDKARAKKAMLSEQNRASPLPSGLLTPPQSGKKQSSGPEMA

In the case of `Nc1nccc2c(Br)cc3cc(C(=O)O)ccc3c12` [MK256], the “differentiation of TEX cells” value is given as “slightly induced the differentiation” in series [1] (50 nM) and “much more effective” in series [1] (500 nM). The “decrease of CD93 relative to control” value in series [1] (50 nM, day 6) was 6.5%; in series [1] (500 nM, day 6) it was “approximately 30%”. For the same molecule, the “increase of CD117 population relative to control” value in series [1] (50 nM, day 6) was determined as 16.5%; in series [1] (500 nM, day 6) it was 8.6%. The “reduction in CD34 compared to control cells” value is 13% in series [1] (50 nM, day 6) and 28% in series [1] (500 nM, day 6). The “expression of CD96 with or without treatment” value in series [1] (day 6) was “no difference”. In series [1] (treated vs control (60% CD38-)), the “reduction of CD38 negativity” value is listed as “approximately 2 fold”. In addition, the “Clint (μL·min^−1·mg protein^−1)” value in series [2] (Mouse hepatocytes) worked out at 5 μL·min^−1·mg protein^−1. In addition, the half-life at 1 µM in series [2] (mouse, cryopreserved mouse hepatocytes, read-out: T½) is 5.18 h. For the same molecule, the inhibition at 0.2 µM on CDK2/cyclin E1 (200 nM) was 5%; at CDK5/p35 (200 nM), 7%; on CDK3/cyclin E1 (200 nM), 4%; at CDK2/cyclin A (200 nM), 7%; on CDK13/cyclin K (200 nM), 27%; at CDK17/cyclin Y (200 nM), 25%. The inhibition at 10 µM was 70% on CDK2/cyclin E1 (10 μM); 90% at CDK5/p35 (10 μM); 82% at CDK3/cyclin E1 (10 μM); 85% at CDK2/cyclin A (10 μM); 95% on CDK13/cyclin K (10 μM); 94% at CDK17/cyclin Y (10 μM).

The term inhibition denotes the change of the read-out against control, counted positive when it falls.
